Laboratory results taken from patent US10928397B2, “Methods involving MenaINV in screening for inhibitors of cancer invasion and metastasis” (MASSACHUSETTS INSTITUTE OF TECHNOLOGY, priority 2012, dated 2021).
Entries after “also recorded” stand apart in the source; their conditions may differ.

Assays:
MDA-MB231 cells [1] = experiment: In vitro invasion into collagen I gels; format: cell-based; conditions: 0.25 or 0.5 nM EGF
MTLn3 cells [2] = experiment: EGF-stimulated lamellipodial (membrane) protrusion in MTLn3 cells; format: cell-based
Method: (§1) FIG. 2A-2G. Inhibition of PTP1b phenocopies expression of Mena^INV. (A) MDA-MB231 cells were serum starved for 4 h with addition of 10 μM PTP1b inhibitor (EMD Calbiochem) for the time indicated. Cells were then stimulated with 0.5 nM EGF and lamellipodial protrusion was measured 8 min post-stimulation. […] (G) Inhibition of PTP1b in vivo shifts the sensitivity of GFP-Control MTLn3 xenografted cells to 5 nM (a 5× increase in sensitivity). *p<0.05 and **p<0.01 by ANOVA and Tukey post-test.
(§2) FIG. 8A-8D: The activity of SHIP2 is not required for early stages of Mena^INV-induced lamellipodial protrusion. MDA-MB231 (A,B) and MTLn3 (C,D) cells were incubated for 4 h with 10 μM AS1949490 in serum-free medium. Cells were stimulated with 0.25 nM (A,B) or 0.5 nM (C,D) EGF and membrane protrusion was recorded 8 min.
What could account for the phenotypes associated with inclusion of the INV exon of Mena, that include: increased activation of EGFR and downstream EGFR-mediated, motility-specific signaling pathways, increased cell invasion, and decreased efficacy of tyrosine kinase inhibition? One route to aberrant signal amplification is dysregulation of control nodes within the protein network, such as phosphatases, that could lead to prolonged or amplified phosphorylation states. Identification of potential Mena and Mena^INV interacting partners that might affect phosphatase activity can shed light on this. Attempts were made at identification of Mena isoforms-specific interacting partners via mass spectrometric analysis. Several unsuccessful attempts to purify Mena interacting partners through a co-immunprecipitation and the mass spectrometric approach resulted. A bioinformatics screening approach was then used. A list of 38 human phosphatases was queried for potential Ena/VASP interaction motifs, with the hypothesis that an interaction between Mena^INV and a phosphatase important for attenuating growth factor responses could lead to increased signaling upon growth factor stimulation. […]

MDA-MB231 cells [3] = experiment: EGF-stimulated lamellipodial (membrane) protrusion in MDA-MB231 cells; format: cell-based; conditions: for lamellipodial protrusion 8 min post-stimulation: 0.5 nM EGF
Method: as §1
as §2, with “min. […]” for “min.”
In contrast, inhibition of PTP1b increased lamellipodial protrusion in MDA-MB231-GFP control cells in a time dependent manner in response to 0.5 nM EGF.

MTLn3 cells [4] = experiment: PI(4,5)P2 hydrolysis, mCherry-tagged PH-domain biosensor (PLCγ activity); format: cell-based; conditions: GFP-control MTLn3, 10 μM pre-incubation, 0.5 nM EGF, 3 min post-EGF, versus DMSO
Method: (§3) FIG. 9A-9C: PTP1b inhibition increases EGFR pathway activation. MDA-MB231 cells expressing GFP-control or GFPMena^INV were serum starved for 4 h and stimulated with 0.25 nM EGF in the presence or absence of 10 μM PTP1b (30 min preincubation). Phosphorylation of EGFR on Y1173 was measured using semi-quantitative Western blotting (A, B) of quadruplicate lysates. […] MTLn3 cells were transiently transfected with a mCherry-tagged PHdomain biosensor targeting PI(4,5)P2, starved in L15 media, pre-incubated with 10 μM PTP1bi and then stimulated with 0.5 nM EGF.

[5] = tested on: EGFR Y1173 phosphorylation in MDA-MB231 cells; experiment: EGFR Y1173 phosphorylation on PTP1b inhibition, semi-quantitative Western blotting; format: cell-based; conditions: 0.25 nM EGF, 10 μM, 30 min preincubation
Method: as §3

[6] = tested on: xenograft tumors of MTLn3 cells; experiment: In vivo invasion assay (needle collection from xenograft tumors); parameters: species or system mouse
Method: An in vivo invasion assay was employed to determine the effect of decreased PTP1b activity on tumor cell chemotaxis. To mimic the in vitro invasion experiments, 50 μM PTP1b inhibitor was added to needles with 10% matrigel and varying concentrations of EGF, the needles inserted into xenograft tumors of MTLn3 cells expressing either GFP or GFP-Mena^INV and cells allowed to crawl into the needle during a 4 h period. Similar to the results obtained in vitro, addition of PTP1b inhibitor to needles used to collect cells had no effect on the number of cells ectopically expressing Mena^INV collected (FIG. 2G). However, PTP1b inhibition increased the sensitivity of control cells 5-fold, decreasing the concentration of EGF required for chemotaxis into the needles from 25 nM to 5 nM. In this assay the discrepancy between expression of Mena^INV and inhibition of PTP1b may be due to the time lag required for inhibitor efficacy.
However, viability of the mouse under anesthesia precludes collection of cells for longer periods than 4 h, therefore this effect is difficult to quantify.

cells expressing MenaINV = experiment: Membrane protrusion after 1 nM EGF with increasing doses of Erlotinib; format: cell-based
Method: FIG. 6A-6D: Cells expressing MenaINV are resistant to EGFR targeted kinase inhibitors. [A] […] Data was combined to generate novel hypothesis regarding clinically-relevant treatment regimes for invasive breast cancer. […]. Membrane protrusion was quantified 8 min post-EGF/drug addition. *p<0.05, **p<0.01, ***p<0.001. […]. Cells were serum starved and then stimulated with EGF and drug for 3 min. Cells were lysed and the level of EGFR-pY1173 was determined by semi-quantitative Western Blot.
. To test this hypothesis, serum-starved cells were treated with 1.0 nM EGF and increasing doses of DMSO (carrier control) or Erlotinib and measured EGFR phosphorylation at 3 min post-stimulation (FIG. 6B). […]. […] Further, electron microscopy was performed using ultra-small gold particles to examine receptor distribution along the cell membrane to determine if increased clustering of the receptor might affect drug binding or signal propagation. However, no significant difference was found in receptor clustering in the analysis (FIG. 7).

mammary carcinoma cells = experiment: In vivo invasion of mammary carcinoma cells under Erlotinib
MET [7] = experiment: MET kinase activity in cells with MET inhibitor; format: cell-based
MET [8] = experiment: HGF-stimulated protrusion assay with MET inhibitor; format: cell-based; conditions: +5 ng/ml HGF
Method: FIG. 11: Cell protrusion assays were performed in which starved carcinoma cells expressing GFP, GFP-Mena or GFP-Mena^INV were stimulated with different concentrations of hepatocyte growth factor (HGF) (analogously as done with EGF stimulation of EGFR) followed by a measurement of cell protrusion several minutes later. The HGF concentrations (x-axis) are nM and the Y-axis is increase in cell size (a reflection of protrusion) compared to unstimulated cells.

## CCc1oc2cc(S(=O)(=O)Nc3ccc(S(=O)(=O)Nc4nccs4)cc3)ccc2c1C(=O)c1cc(Br)c(O)c(Br)c1 [PTP1b inhibitor]
MDA-MB231 cells [1]; MDA-MB231-GFP and -GFP-Mena
  invasion into collagen I gels: increased
MDA-MB231 cells [1]; cells expressing Mena^INV
  invasion into collagen I gels: no significant effect
MTLn3 cells [2]; unmodified MTLn3 cells, EGF (0.5 nM, 5 nM elsewhere in the source)
  membrane protrusion (magnitude and kinetics): increased the magnitude and kinetics of membrane protrusion; also recorded: significantly enhanced
MDA-MB231 cells [3]; GFP-control cells, 10 μM, 30 min pre-incubation
  lamellipodial protrusion 8 min post-stimulation: complete phenocopy of Mena^INV-dependent responses; also recorded: significant increase in membrane protrusion
MDA-MB231 cells [3]; MDA-MB231-GFP control cells, 30 min pre-incubation
  kinetics of protrusion: increased the kinetics of protrusion
MDA-MB231 cells [3]; MDA-MB231-GFP-Mena and GFP control cells, 0.25 nM EGF
  membrane protrusion: increased membrane protrusion; also recorded: protrusion was increased
MDA-MB231 cells [3]; MDA-MB231-GFP-Mena^INV cells
  kinetics of protrusion: without affecting the dynamics
MDA-MB231 cells [3]; MDA-MB231-GFP-Mena^INV cells, 0.25 nM EGF
  membrane protrusion: no further increase was measured
MDA-MB231 cells [3]; cells expressing Mena^INV, 0.125 nM EGF (data not shown)
  membrane protrusion: does not increase membrane protrusion
MDA-MB231 cells [3]; cells expressing Mena^INV, 10 μM, 30 min pre-incubation
  lamellipodial protrusion 8 min post-stimulation: had no effect
MTLn3 cells [4]
  PI(4,5)P2 hydrolysis (PLCγ activity): increased PI(4,5)P2 hydrolysis
MTLn3 cells [4]; listed as PTP1bi
  PI(4,5)P2 hydrolysis (PLCγ activity): PLCγ activity is greater
[5]; GFP control cells
  EGFR Y1173 phosphorylation: increases EGFR phosphorylation on Y1173; also recorded: increased EGFR Y1173 phosphorylation
[5]; GFP control cells, listed as PTP1bi
  EGFR Y1173 phosphorylation: increased EGFR Y1173 phosphorylation
[5]; cells expressing Mena^INV
  EGFR Y1173 phosphorylation: no additional affect
[6]; GFP-control MTLn3 xenograft, 50 μM inhibitor in needles, 4 h
  increase in sensitivity of control cells to EGF in vivo: 5 fold
[6]; GFP-control MTLn3 xenograft, 50 μM inhibitor, 25 nM without inhibitor
  concentration of EGF required for chemotaxis into the needles with inhibitor: 5 nM
[6]; MTLn3 cells ectopically expressing Mena^INV, 50 μM inhibitor
  number of cells collected into needles: had no effect

## C[C@H](NC(=O)c1sccc1OCc1ccc(Cl)cc1)c1ccccc1 [AS1949490]
MTLn3 cells [2]; MTLn3-GFP-Mena^INV, 10 μM for 4 h, 0.5 nM EGF
  membrane protrusion at 8 min post-EGF stimulation: reduced the protrusion response; also recorded: decreased membrane protrusion to GFPcontrol levels
MTLn3 cells [2]; MTLn3-GFP-Mena^INV, 10 μM, 0.5 nM EGF, up to 3 min post-stimulation
  initial protrusion response (kinetics): still demonstrated the fast initial protrusion response
MDA-MB231 cells [3]; MDA-MB231-GFP-Mena^INV, 10 μM for 4 h, 0.25 nM EGF
  membrane protrusion at 8 min post-EGF stimulation: reduced the protrusion response; also recorded: decreased membrane protrusion to GFPcontrol levels
MDA-MB231 cells [3]; MDA-MB231-GFP-Mena^INV, 10 μM, 0.25 nM EGF, up to 3 min post-stimulation
  initial protrusion response (kinetics): still demonstrated the fast initial protrusion response

## C#Cc1cccc(Nc2ncnc3cc(OCCOC)c(OCCOC)cc23)c1 [Erlotinib]
Cells expressing MenaINV; 1 nM EGF, 8 min post-EGF/drug addition
  drug required to decrease lamellipodial protrusion, Mena^INV cells compared to control GFP or Mena cells: ten-fold more Erlotinib was required; also recorded: Significantly higher doses of Erlotinib (Tarceva) are required
Cells expressing MenaINV; across cell lines (FIG. 6D)
  efficacy after normalizing protrusion to the no-drug response of each cell line: roughly equivalent; also recorded: a common response across cell lines
Mammary carcinoma cells; GFP-expressing mammary carcinoma cells
  in vivo invasion: abrogates in vivo invasion
Mammary carcinoma cells; cells that express Mena^INV
  in vivo invasion: does not fully block invasion

## Cc1[nH]c(/C=C2\C(=O)Nc3ccc(S(=O)(=O)N(C)c4cccc(Cl)c4)cc32)c(C)c1C(=O)N1CCN(C)CC1 [SU11274]
MET [7]
  response of Mena^INV expressing cells, MET kinase activity: resistant
MET [8]
  response of Mena^INV expressing cells in protrusion assay: resistant
